Results as given in article PMC8421406, “C9orf72-derived arginine-rich poly-dipeptides impede phase modifiers” (Nature Communications, 2021).
Entries after “also recorded” stand apart in the source; their conditions may differ. Where no end group is shown, it is not given here. HA = HA epitope tag

Tested on: Kapβ2
Experiment: Solution NMR (1H-13C methyl) of labelled Kapβ2
Assay type: binding
Method: The Kapβ2 expression plasmid was transformed into BL21(DE3) cells. The protein samples with ^1H,^13C-labeled methyl groups in deuterium background were prepared as described in a previous study. The cells were grown in medium with ^15NH4Cl (2 gL^−1, CIL) and ^2H7-glucose (2 g L^−1, CIL) in 99.9% ^2H2O (Isotec). The precursors for methyl groups of Ile, Val, and Leu, α-ketobutyric acid (50 mg L^−1) and α-ketoisovaleric acid (80 mg L^−1), and [^13CH3] methionine (50 mg L^−1) were added to the culture 1 h before the addition of IPTG. Protein expression was induced by the addition of 0.5 mM IPTG at OD600 ~ 0.6, followed by ~16 h of incubation at 25 °C. […] Protein concentration was determined spectrophotometrically at 280 nm using a corresponding extinction coefficient.
The isotopically labeled Kapβ2 was prepared in the NMR buffer containing 20 mM ^2H-Tris pH 7.4, 150 mM NaCl, 2 mM MgCl2, 2 mM DTT, and 2% glycerol, concentrated to 20 μM. […] Perturbation of the side chain methyl resonances were each monitored using ^1H-^13C heteronuclear multiple quantum coherence. […] The perturbations of the resonances were evaluated based on chemical shift change or intensity change. […]
In order to investigate the interaction between Kapβ2 and PR poly-dipeptide by NMR, the NMR spectra of the isotopically labeled Kapβ2 in the absence and presence of the synthetic peptide of PR20:HA were measured. […]

Which “Perturbation of Kapβ2 methyl resonances” value (20 μM labelled Kapβ2, 20 °C, 20 mM Tris pH 7.4, 150 mM NaCl, 600/800 MHz) does the source give for “PR20: twenty repeats of proline:arginine with an HA epitope tag at the C terminus, synthesized by SCRUM, Inc. (PRPRPRPRPRPRPRPRPRPRPRPRPRPRPRPRPRPRPRPR-{HA})” here?
The value was “induced significant perturbations to several resonances of Kapβ2; also recorded: several resonances show significant perturbations induced only by PR20”.

What about the “Binding site on Kapβ2 by NMR” value (comparison of perturbations by PR20, M9M and FUS-ΔNLS) of the same substance?
The value was “partially occupy the NLS-binding site of Kapβ2”.
